Results published in US20240174714A1, “TREATMENT OF SKIN DISORDERS” (priority 2021, published 2024).
Converted amounts (≈) assume the structure as drawn. Like-named read-outs stand apart in the source and are kept apart here. Numbered stars: 1 amine (or outer) side, 2 acyl side, 3 side chain; on linkers, the order of the positions; unused ones are H or OH. Square brackets hold non-standard residues; d marks the D form. Peptide text beside a SMILES is read from it. * marks the point of attachment. X13 = O=C([C@H](Cc1nc2ccc(F)cc2s1)N[*:1])[*:2]; X14 = COc1ccc(C[C@H](N[*:1])C(=O)[*:2])cc1Cl; NH((S)CH(Me)CH2NMe2) = C[C@@H](CN(C)C)N*; NH(1-CH2NMe2-cBu) = CN(C)CC1(N*)CCC1; Gly(octyl) = CCCCCCCC[C@H](N)C(=O)O; Oxazole4CO(2-Me) = Cc1nc(C(=O)*)co1; Benzoyl(4-F) = O=C(c1ccc(F)cc1)*; hCha = N[C@@H](CCC1CCCCC1)C(=O)O; X8 = O=C(c1coc(-c2ccccc2)n1)*; X2 = C1CCN(CC2(N*)CCC2)CC1; Aib = CC(C)(N)C(=O)O; βAla = NCCC(=O)O

Tests used:
[1] = test system: Staphylococcus aureus ATCC BAA-1556, USA300 MRSA; assay: microbe, parasite or virus in culture; type: cell-based; details: ATCC BAA-1556
Method: Pre-formulated compound solution was diluted in 100% DMSO to prepare a 1.6 mg/mL working stock solution. […] The concentration range was 0.032 to 32 μg/mL.

[2] = test system: Staphylococcus aureus ATCC 43300, MRSA; type: cell-based; details: ATCC 43300, 18 h
Method: The antibacterial activity of inventive compounds was evaluated in duplicate in a further Minimum Inhibitory Concentration (MIC) assay.
Bacteria were cultured in Cation-adjusted Mueller Hinton broth (CAMHB) at 37° C. overnight. A sample of each culture was then diluted 40-fold in fresh broth and incubated at 37° C. for 1.5-3 h. The resultant mid-log phase cultures were diluted (CFU/mL measured by OD600), then added to each well of the compound containing plates, giving a cell density of 5×10^5 CFU/mL and a total volume of 50 μL. All the plates were covered and incubated at 37° C. for 18 h without shaking.
Samples were prepared in DMSO and serially diluted 2 fold 8 times. Each sample concentration was prepared in 384-well plates, non-binding surface plate (NBS; Corning 3640) for the bacterial strain ATCC 43300, MRSA. The final DMSO concentration was at a maximum of 0.5%.
Inhibition of bacterial growth was determined measuring absorbance at 600 nm (OD600), using a Tecan M1000 Pro monochromator plate reader. The percentage of growth inhibition was calculated for each well, using the negative control (media only) and positive control (bacteria without inhibitors) on the same plate as references. […] Vancomycin was used as positive bacterial inhibitor standards.

rat myoblast cells (L6) = assay: Cytotoxicity assay (Alamar Blue) on L6-cells; type: cell-based
Method: (§1) Tests were done in triplicate.
(§2) The plates were incubated for additional 2 h.

[3] = test system: axenic Leishmania donovani MHOM-ET-67/L82 amastigotes; assay: In vitro antiprotozoal assay, axenic amastigotes; type: cell-based; details: axenic amastigotes; read-out: L.don.ax. IC50
Method: (§3) The testing of the inventive compounds against Leishmania donovani (strain MHOM/ET/67/L82) was performed in 96 well plates at concentrations in serial dilutions. Tests were done in triplicate.

[4] = test system: intracellular Leishmania donovani MHOM-ET-67/L82 amastigotes; assay: In vitro antiprotozoal assay, intracellular amastigotes; type: cell-based; details: intracellular amastigotes; read-out: L.don.InMac IC50
Method: as §3

[5] = Cytotoxicity assay (Alamar Blue) on L6-cells; type: cell-based, rat; details: rat
Method: as §1, §2

Row | SMILES | MIC [1] [µg/mL] | MIC [2] [µg/mL] | IC50 [3] [nM] | IC50 at 68 h [5] [nM] | further results
1 | Cc1nc(C(=O)N2CCCC2C(=O)N[C@@H](CCC2CCCCC2)C(=O)N[C@@H](CC(C)C)C(=O)NC(C)(C)C(=O)N[C@@H](CC(C)C)C(=O)N[C@@H](CC(C)C)C(=O)NC(C)(C)C(=O)NC(C)(C)C(=O)NCCC(=O)NCCN)co1 (stereo in doubt) [Compound 7192, (2S)-N-(1-{[(1S)-1-{[(1S)-1-[(1-{[1-({2-[(2-aminoethyl)carbamoyl]ethyl}carbamoyl)-1-methylethyl]carbamoyl}-1-methylethyl)carbamoyl]-3-methylbutyl]carbamoyl}-3-methylbutyl]carbamoyl}-1-methylethyl)-2-[(2S)-4-cyclohexyl-2-{[(2S)-1-(2-methyl-1,3-oxazole-4-carbonyl)pyrrolidin-2-yl]formamido}butanamido]-4-methylpentanamide] | 16 (≈ 14.6 µM) | 8 (≈ 7.28 µM) |  |  | 
2 | CCCCCCCC[C@H](NC(=O)[C@@H]1CCCN1C(=O)c1coc(-c2ccccc2)n1)C(=O)N[C@@H](CC(C)C)C(=O)NC(C)(C)C(=O)N[C@@H](CC(C)C)C(=O)N[C@@H](CC(C)C)C(=O)NC(C)(C)C(=O)NC(C)(C)C(=O)NCCC(=O)N[C@@H](C)CN(C)C [Compound 5906, (2S)-N-[(1S)-1-[(1-{[(1S)-1-{[(1S)-1-{[1-({1-[(2-{[(2S)-1-(dimethylamino)propan-2-yl]carbamoyl}ethyl)carbamoyl]-1-methylethyl}carbamoyl)-1-methylethyl]carbamoyl}-3-methylbutyl]carbamoyl}-3-methylbutyl]carbamoyl}-1-methylethyl)carbamoyl]-3-methylbutyl]-2-{[(2S)-1-(2-phenyl-1,3-oxazole-4-carbonyl)pyrrolidin-2-yl]formamido}decanamide] (X8-P[Gly(octyl)]L[Aib]LL[Aib][Aib][βAla]-{NH((S)CH(Me)CH2NMe2)}) |  |  | 3.7 |  | IC50 (rat myoblast cells (L6)): 445 nM; IC50 [4]: 14.1 nM
3 | Cc1nc(C(=O)N2CCC[C@H]2C(=O)N[C@@H](CCC2CCCCC2)C(=O)N[C@@H](CC(C)C)C(=O)NC(C)(C)C(=O)N[C@@H](CC(C)C)C(=O)N[C@@H](CC(C)C)C(=O)NC(C)(C)C(=O)NC(C)(C)C(=O)NCCC(=O)NC2(CN3CCCCC3)CCC2)co1 [Compound 6483, (2S)-2-[(2S)-4-cyclohexyl-2-{[(2S)-1-(2-methyl-1,3-oxazole-4-carbonyl)pyrrolidin-2-yl]formamido}butanamido]-4-methyl-N-(1-methyl-1-{[(1S)-3-methyl-1-{[(1S)-3-methyl-1-({1-methyl-1-[(1-methyl-1-{[2-({1-[(piperidin-1-yl)methyl]cyclobutyl}carbamoyl)ethyl]carbamoyl}ethyl)carbamoyl]ethyl}carbamoyl)butyl]carbamyl}butyl]carbamoyl}ethyl)pentanamide] ({Oxazole4CO(2-Me)}-P[hCha]L[Aib]LL[Aib][Aib][βAla]-X2) | 8 (≈ 6.62 µM) | 8 (≈ 6.62 µM) | 4.1 | 486 | 
4 | Cc1nc(C(=O)N2CCC[C@H]2C(=O)N[C@@H](Cc2c[nH]c3ccccc23)C(=O)N[C@@H](CC(C)C)C(=O)NC(C)(C)C(=O)N[C@@H](CC(C)C)C(=O)N[C@@H](CC(C)C)C(=O)NC(C)(C)C(=O)NC(C)(C)C(=O)NCCC(=O)NC2(CN(C)C)CCC2)co1 [Compound 6779, (2S)-N-(1-{[(1S)-1-{[(1S)-1-({1-[(1-{[2-({1-[(dimethylamino)methyl]cyclobutyl}carbamoyl)ethyl]carbamoyl}-1-methylethyl)carbamoyl]-1-methylethyl}carbamoyl)-3-methylbutyl]carbamoyl}-3-methylbutyl]carbamoyl}-1-methylethyl)-2-[(2S)-3-(1H-indol-3-yl)-2-{[(2S)-1-(2-methyl-1,3-oxazole-4-carbonyl)pyrrolidin-2-yl]formamido}propanamido]-4-methylpentanamide] (HELM PEPTIDE1{[Cc1nc(C(=O)[*:2])co1].P.W.L.[Aib].L.L.[Aib].[Aib].[bAla].[CN(C)CC1(N[*:1])CCC1]}$$$$V2.0) |  | 8 (≈ 6.74 µM) | 27 | 6680 | IC50 [4]: 203 nM
5 | Cc1nc(C(=O)N2CCC[C@H]2C(=O)N[C@@H](CC2CCCCC2)C(=O)N[C@@H](CC(C)C)C(=O)NC(C)(C)C(=O)N[C@@H](CC(C)C)C(=O)N[C@@H](CC(C)C)C(=O)NC(C)(C)C(=O)NC(C)(C)C(=O)NCCC(=O)NC2(CN(C)C)CCC2)co1 [Compound 7059, (2S)-2-[(2S)-3-cyclohexyl-2-{[(2S)-1-(2-methyl-1,3-oxazole-4-carbonyl)pyrrolidin-2-yl]formamido}propanamido]-N-(1-{[(1S)-1-{[(1S)-1-({1-[(1-{[2-({1-[(dimethylamino)methyl]cyclobutyl}carbamoyl)ethyl]carbamoyl}-1-methylethyl)carbamoyl]-1-methylethyl}carbamoyl)-3-methylbutyl]carbamoyl}-3-methylbutyl]carbamoyl}-1-methylethyl)-4-methylpentanamide] (HELM PEPTIDE1{[Cc1nc(C(=O)[*:2])co1].P.[Cha].L.[Aib].L.L.[Aib].[Aib].[bAla].[CN(C)CC1(N[*:1])CCC1]}$$$$V2.0) | 4 (≈ 3.47 µM) | 32 (≈ 27.7 µM) | 1.3 | 6850 | 
6 | COc1ccc(C[C@H](NC(=O)[C@@H]2CCCN2C(=O)c2ccc(F)cc2)C(=O)N[C@@H](CC(C)C)C(=O)NC(C)(C)C(=O)N[C@@H](CC(C)C)C(=O)N[C@@H](CC(C)C)C(=O)NC(C)(C)C(=O)NC(C)(C)C(=O)NCCC(=O)NC2(CN(C)C)CCC2)cc1Cl [Compound 7846, (2S)-2-[(2S)-3-(3-chloro-4-methoxyphenyl)-2-{[(2S)-1-(4-fluorobenzoyl)pyrrolidin-2-yl]formamido}propanamido]-N-(1-{[(1S)-1-{[(1S)-1-({1-[(1-{[2-({1-[(dimethylamino)methyl]cyclobutyl}carbamoyl)ethyl]carbamoyl}-1-methylethyl)carbamoyl]-1-methylethyl}carbamoyl)-3-methylbutyl]carbamoyl}-3-methylbutyl]carbamoyl}-1-methylethyl)-4-methylpentanamide] ({Benzoyl(4-F)}-P[X14]L[Aib]LL[Aib][Aib][βAla]-{NH(1-CH2NMe2-cBu)}) |  | 4 (≈ 3.27 µM) |  |  | 
7 | CC(C)C[C@H](NC(=O)[C@H](Cc1nc2ccc(F)cc2s1)NC(=O)[C@@H]1CCCN1C(=O)c1ccc(F)cc1)C(=O)NC(C)(C)C(=O)N[C@@H](CC(C)C)C(=O)N[C@@H](CC(C)C)C(=O)NC(C)(C)C(=O)NC(C)(C)C(=O)NCCC(=O)NC1(CN(C)C)CCC1 [Compound 7848, (2S)-N-(1-{[(1S)-1-{[(1S)-1-({1-[(1-{[2-({1-[(dimethylamino)methyl]cyclobutyl}carbamoyl)ethyl]carbamoyl}-1-methylethyl)carbamoyl]-1-methylethyl}carbamoyl)-3-methylbutyl]carbamoyl}-3-methylbutyl]carbamoyl}-1-methylethyl)-2-[(2S)-3-(6-fluoro-1,3-benzothiazol-2-yl)-2-{[(2S)-1-(4-fluorobenzoyl)pyrrolidin-2-yl]formamido}propanamido]-4-methylpentanamide] ({Benzoyl(4-F)}-P[X13]L[Aib]LL[Aib][Aib][βAla]-{NH(1-CH2NMe2-cBu)}) |  | 4 (≈ 3.24 µM) |  |  | 
8 | COc1cc([C@@H]2c3cc4c(cc3[C@H](O)[C@H]3COC(=O)[C@H]23)OCO4)cc(OC)c1OC [Podophyllotoxin, reference compound] |  |  |  |  | IC50 (rat myoblast cells (L6); Rattus norvegicus, Myoblast, read-out: IC50 Concurrent (nM)): 19.3 nM; IC50 (rat myoblast cells (L6); Rattus norvegicus, Myoblast, read-out: IC50 of reference drug): 50 ± 10 nM
